Test results as given in patent US5336483A (priority 1993, dated 1994).
“Also recorded” adds a separate entry of the source. Read-outs that look alike come from different tables or passages of the source.

Legend:
[1] = system: morphine-induced analgesia; experiment: In vivo antagonist activity: reversal of morphine-induced analgesia, rat paw withdrawal latency test; details: for paw withdrawal latency after i.v. injection / reversal of behavioral arrest and other opioid effects / duration of reversal: 5 mg/kg i.v.; for paw withdrawal latency after i.v. injection: tested within 5-10 min; for paw withdrawal latency after i.v. injection / duration of reversal: morphine-treated rats; for reversal of behavioral arrest and other opioid effects: morphine sulphate 10 mg/kg s.c.; for prodrug behaviour: acetate esters vs 1 and 2; for blood brain barrier penetration: i.v., inferred from reversal of morphine effects in rats; for antagonist potency in vivo (comparison in words): morphine induced paw withdrawal latency; for reversal of the effects of morphine: rat paw withdrawal latency test
Description: Assessment of the ability of compounds 1, 2 and 10, 12 to cross the blood brain barrier was tested in male Sprague-Dawley rats (300 g) acutely treated with morphine. […] A baseline paw withdrawal to a radiant thermal stimulus was obtained in unrestrained animals as described in Iadarola et al., Brain Res. 1988, 455, 205-212 and Hargreaves, Pain 1988, 32, 77-78. The stimulus was set to give a baseline withdrawal latency of approximately 10 sec. and the cutoff was at 18 sec. After baseline testing, morphine sulphate, 10 mg/kg, was injected subcutaneously in a volume of 0.1 ml of saline/100 g of body weight.
Ioxy (1) and epiloxy (2) were evaluated in rat and guinea pig brain membranes for their opiate receptor selectivity and potency. […] This comparison was not made during development of the ^18 F cyclofoxy compounds.

μ and κ2 receptor = experiment: Displacement of [^3 H]CycloFOXY, μ and κ2 receptor binding, rat brain lysed-P2 membranes
[2] = molecular target: T1, High Affinity δ Receptors (Rattus norvegicus, UniProt P33533); experiment: Displacement of [^3 H]DADLE, high affinity δ receptors, rat lysed-P2 membranes; format: binding
T1 construct: and rat lysed-P2 membranes as previously described; from tissue; host or cells: rat lysed-P2 membranes (brain)

Low Affinity δ Receptors = experiment: Displacement of [^3 H]DADLE, low affinity δ receptors, rat lysed-P2 membranes; format: binding
κ2 receptor = experiment: Displacement of [^3 H]BRM (bremazocine), κ2 receptor binding, guinea pig brain membranes depleted of μ and δ sites; details: for less potent (fold) than ioxy: [^3 H]BRM displacement
κ1 receptor = molecular target: T2, κ1 receptor (Cavia porcellus, UniProt P41144); experiment: biochemical; format: binding, guinea pig
T2 construct: from tissue; host or cells: guinea pig brain membranes, pretreated with BIT and FIT

μ receptor = molecular target: T3, μ receptor (Rattus norvegicus, UniProt P33535); experiment: Displacement of [^3 H]DAGO, μ receptor binding, rat lysed-P2 membranes
T3 construct: and rat lysed-P2 membranes as previously described; from tissue; host or cells: rat brain, lysed-P2 membranes
T3 sequence (P33535 whole entry): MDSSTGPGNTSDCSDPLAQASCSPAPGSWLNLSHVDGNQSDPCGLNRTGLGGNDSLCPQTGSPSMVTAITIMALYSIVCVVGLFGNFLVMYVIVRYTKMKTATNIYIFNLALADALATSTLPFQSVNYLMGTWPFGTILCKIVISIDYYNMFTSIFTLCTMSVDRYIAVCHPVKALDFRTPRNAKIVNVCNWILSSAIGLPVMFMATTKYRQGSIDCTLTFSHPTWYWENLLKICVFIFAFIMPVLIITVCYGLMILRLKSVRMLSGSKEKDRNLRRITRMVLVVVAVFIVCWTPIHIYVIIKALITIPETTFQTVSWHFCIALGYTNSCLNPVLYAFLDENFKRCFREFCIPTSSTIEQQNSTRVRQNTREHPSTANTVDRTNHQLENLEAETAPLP

T1 sequence (P33533 whole entry): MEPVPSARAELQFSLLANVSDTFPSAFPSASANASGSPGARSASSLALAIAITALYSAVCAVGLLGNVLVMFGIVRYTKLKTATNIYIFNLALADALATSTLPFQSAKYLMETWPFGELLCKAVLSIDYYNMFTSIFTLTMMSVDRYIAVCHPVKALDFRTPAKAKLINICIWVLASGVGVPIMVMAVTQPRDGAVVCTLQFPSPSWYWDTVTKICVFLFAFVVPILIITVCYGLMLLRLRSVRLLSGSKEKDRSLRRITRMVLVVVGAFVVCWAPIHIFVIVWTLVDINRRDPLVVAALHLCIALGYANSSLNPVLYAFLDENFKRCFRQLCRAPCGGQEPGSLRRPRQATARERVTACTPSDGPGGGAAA
T2 sequence (P41144 whole entry): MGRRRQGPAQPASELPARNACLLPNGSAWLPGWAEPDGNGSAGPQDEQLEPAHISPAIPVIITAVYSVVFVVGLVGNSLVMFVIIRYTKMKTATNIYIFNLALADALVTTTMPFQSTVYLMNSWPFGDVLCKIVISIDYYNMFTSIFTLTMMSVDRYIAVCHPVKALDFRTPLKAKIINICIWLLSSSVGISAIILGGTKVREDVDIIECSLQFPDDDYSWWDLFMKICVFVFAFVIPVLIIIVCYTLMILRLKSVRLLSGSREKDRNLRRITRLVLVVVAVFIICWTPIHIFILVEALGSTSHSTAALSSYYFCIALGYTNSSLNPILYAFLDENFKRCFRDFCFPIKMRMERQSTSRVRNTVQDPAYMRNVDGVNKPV

Row | Molecule | paw withdrawal latency after i.v. injection [1] | reversal of behavioral arrest and other opioid effects [1] | duration of reversal [1] | blood brain barrier penetration [1] | reversal of the effects of morphine [1] | IC50 (μ and κ2 receptor) [nM] | Ki (μ and κ2 receptor) [nM] | Ki [2] [nM] | N (slope factor) ([2]; [^3 H]DADLE, high affinity δ) | Ki (Low Affinity δ Receptors) [nM] | IC50 (κ2 receptor) [nM] | Ki (κ2 receptor) [nM] | IC50 (κ1 receptor) [nM] | Ki (κ1 receptor) [nM] | IC50 (μ receptor) [nM] | Ki (μ receptor) [nM] | N (slope factor) (μ receptor; [^3 H]DAGO displacement) | other results
1 | CC(=O)Oc1ccc2c3c1O[C@H]1[C@H](I)CC[C@@]4(O)[C@@H](C2)N(CC2CC2)CC[C@]314 [Compound 10, 3-Acetoxy-6β-Iodo-14-Hydroxy-17-Cyclopropylmethyl-4,5α-Epoxymorphinan] | returned to near baseline values | reversed in a matter of seconds | at least 40 min | getting into the brain; also recorded: penetrated the blood brain barrier more effectively | complete reversal of the effects of morphine | – | – | – | – | – | – | – | – | – | – | – | – | prodrug behaviour [1]: served as prodrug forms of 1 and 2; antagonist potency in vivo (comparison in words) [1]: more potent effects on morphine induced paw withdrawal latency than their corresponding phenolic counterparts
2 | CC(=O)Oc1ccc2c3c1O[C@H]1[C@@H](I)CC[C@@]4(O)[C@@H](C2)N(CC2CC2)CC[C@]314 [Compound 12, 3-Acetoxy-6α-Iodo-14-Hydroxy-17-Cyclopropylmethyl-4,5α-Epoxymorphinan] | returned to near baseline values | reversed in a matter of seconds | at least 40 min | getting into the brain; also recorded: penetrated the blood brain barrier more effectively | complete reversal of the effects of morphine | – | – | – | – | – | – | – | – | – | – | – | – | prodrug behaviour [1]: served as prodrug forms of 1 and 2; antagonist potency in vivo (comparison in words) [1]: more potent effects on morphine induced paw withdrawal latency than their corresponding phenolic counterparts
3 | Oc1ccc2c3c1O[C@H]1[C@H](Br)CC[C@@]4(O)[C@@H](C2)N(CC2CC2)CC[C@]314 [CycloBROXY, reference compound] | – | – | – | – | – | 3.14 ± 0.11 | 1.19 | 1.96 | 0.99 ± .09 | 4.92 | 20.2 ± 1.2 | 7.21 | 0.7 ± 0.02 | 0.32 | 4.21 ± 0.14 | 1.23 | 1.05 ± .04 | relative affinity / potency in words (μ and κ2 receptor; [^3 H]CycloFOXY displacement): intermediate receptor affinity; higher affinity (fold) ([2]; [^3 H]DADLE, high affinity δ): 6 fold; IC50 ([2]; read-out: IC50): 4.3 nM; IC50 (Low Affinity δ Receptors): 5.77 ± 0.14 nM; less potent (fold) than ioxy (κ2 receptor): 3 fold; N (slope factor) (κ1 receptor; [^3 H]U69,593 displacement): 1.03 ± .03; relative potency in words (κ1 receptor; [^3 H]U69,593 displacement): most potent displacers; lower affinity / less potent (fold) than ioxy (μ receptor; [^3 H]DAGO displacement): about 1.5 fold
4 | Oc1ccc2c3c1O[C@H]1[C@H](F)CC[C@@]4(O)[C@@H](C2)N(CC2CC2)CC[C@]314 [CycloFOXY, 6β-fluoro-3,14-dihydroxy-17-cyclopropyl methyl-4,5α-epoxymorphinan, reference compound] | – | – | – | – | – | – | – | – | – | – | – | – | – | – | – | – | – | kappa selectivity κ1/μ (κ1 receptor; ratio κ1/μ): 0.89
5 | Oc1ccc2c3c1O[C@H]1[C@@H](I)CC[C@@]4(O)[C@@H](C2)N(CC2CC2)CC[C@]314 [EpilOXY, 6α-Iodo-3,14-Dihydroxy-17-Cyclopropylmethyl-4,5α-Epoxymorphinan] | returned to near baseline values | reversed in a matter of seconds | at least 40 min | getting into the brain | complete reversal of the effects of morphine | 4.34 ± 0.19 | 1.65 | 46.2 | 0.99 ± .07 | 6.88 | 23.7 ± 1.1 | 8.46 | 3.17 ± 0.06 | 1.49 | 7.16 ± 0.72 | 2.09 | 0.95 ± .08 | reduction in affinity (fold) compared with ioxy (1) (μ and κ2 receptor; [^3 H]CycloFOXY displacement): 6 fold; lowered affinity / less potent (fold) than ioxy (1) ([2]; [^3 H]DADLE, high affinity δ): 4 fold; IC50 ([2]; read-out: IC50): 101 ± 8.4 nM; IC50 (Low Affinity δ Receptors): 8.06 ± 0.58 nM; lower affinity (fold) than ioxy (1) (Low Affinity δ Receptors; [^3 H]DADLE, low affinity δ): 3 fold; less potent (fold) than ioxy (κ2 receptor): 3 fold; N (slope factor) (κ1 receptor): 1.10 ± .02; less potent (fold) than ioxy (κ1 receptor): 4 fold; lower affinity / less potent (fold) than ioxy (μ receptor; [^3 H]DAGO displacement): 2 fold
6 | Oc1ccc2c3c1O[C@H]1[C@H](I)CC[C@@]4(O)[C@@H](C2)N(CC2CC2)CC[C@]314 [IOXY, 6β-Iodo-3,14-Dihydroxy-17-Cyclopropylmethyl-4,5α-Epoxymorphinan] | returned to near baseline values | reversed in a matter of seconds | at least 40 min | readily passed the blood brain barrier | complete reversal of the effects of morphine | 0.77 ± 0.05 | 0.29 | 11.7 | 0.77 ± .07 | 2.25 | 7.65 ± 0.23 | 2.73 | 0.89 ± 0.01 | 0.42 | 2.74 ± 0.21 | 0.8 | 1.05 ± .07 | relative affinity / potency in words (μ and κ2 receptor; [^3 H]CycloFOXY displacement): more potent than the opiate antagonist, naltrexone; IC50 [2]: 5.6 ± 3.1 nM; relative affinity in words (Low Affinity δ Receptors; [^3 H]DADLE, low affinity δ): highest affinity of all the compounds tested; IC50 (Low Affinity δ Receptors; […], ligand concentration = 2.1 nM): 2.64 ± 0.21 nM; kappa selectivity κ2/μ (κ2 receptor; ratio κ2/μ): 0.3; N (slope factor) (κ1 receptor): 1.04 ± .02; kappa selectivity κ1/μ (κ1 receptor): 1.9; relative potency in words (κ1 receptor): most potent displacers; relative potency in words (μ receptor; [^3 H]DAGO displacement): most potent; blood brain barrier penetration ([1]; listed as 1): getting into the brain; antagonist potency in vivo (comparison in words) ([1]; listed as Ioxy): more potent in vivo than compound 2 and cyclofoxy; antagonist potency in vivo (comparison in words) ([1]; listed as ioxy): potent opioid receptor antagonist in the rat; also recorded: more effective than epiioxy
7 | O=C1CC[C@@]2(O)[C@H]3Cc4ccc(O)c5c4[C@@]2(CCN3CC2CC2)[C@H]1O5 [Naltrexone, reference compound] | returned to near baseline values | reversed in a matter of seconds | – | – | complete reversal of the effects of morphine | – | – | – | – | – | – | – | – | – | – | – | – | –
8 | Oc1ccc2c3c1O[C@H]1[C@H](F)CC[C@@]4(O)[C@@H](C2)N(CC2CC2)CC[C@]314 [[^3 H]CycloFOXY, reference compound] | – | – | – | – | – | – | – | – | – | – | – | – | – | – | – | – | – | Kd (μ and κ2 receptor; [^3 H]CycloFOXY, read-out: Kd of radioligand): 0.8 nM
9 | [D-ala^2, D-leu^5 ]enkephalin [[^3 H] DADLE, reference compound] | – | – | – | – | – | – | – | – | – | – | – | – | – | – | – | – | – | Kd (Low Affinity δ Receptors; [^3 H]DADLE, low affinity δ, δcx site, read-out: Kd of radioligand): 12.2 nM
